Experimental data as given in article PMC9450956 (Science translational medicine, 2021).

What was measured:
SUMO1 [1] = experiment: Western and dot blots for SUMO1 in LN229 cells; assay type: cell-based, human; settings: 72 hours
[2] = test system: human colon, breast carcinoma, and NSCLC PDXs; experiment: Cancer PDX mouse models, tumor progression and survival; assay type: in vivo, mice; settings: for progression of PDXs: intraperitoneal, once per day for 14 days
[3] = test system: SUMO1-CDK6, SUMO1-RanGAP1, and SUMO3-RanGAP1 conjugation; experiment: In vitro sumoylation assay; assay type: biochemical; settings: CDK6 and RanGap1 as substrates
SUMO1 [4] = experiment: SUMO1 target engagement in colon cancer PDX mice; assay type: in vivo; settings: intraperitoneal once per day for 3 days, dose-dependent
[5] = test system: LN229-derived brain xenografts; experiment: LN229-derived intracranial brain xenografts, survival; assay type: in vivo, mice; settings: intraperitoneal, once per day for 14 days; Kaplan-Meier
SUMO1 mRNA = SUMO1 mRNA expression in LN229 cells; assay type: cell-based, human; settings: LN229 cancer cells
[6] = test system: NSCLC A549 and colon cancer HCT116 xenografts; experiment: Cancer cell line-derived subcutaneous xenografts; assay type: in vivo, mice; settings: intraperitoneal, once per day for 14 days
adenosine A2A = adenosine A2A (Homo sapiens, UniProt P29274); experiment: LeadProfilingScreen selectivity profiling; assay type: binding; settings: 10 μM
[7] = Oral PK of solution formulation; assay type: in vivo; settings: rat
cellular CAPRIN1 = biological target: T1, cellular CAPRIN1 (Homo sapiens, UniProt Q14444); experiment: HB007-biotin pull-down competition with cell lysates, immunoblot; assay type: binding; settings: free compound added to cell lysates
T1 sequence (Q14444 1-709): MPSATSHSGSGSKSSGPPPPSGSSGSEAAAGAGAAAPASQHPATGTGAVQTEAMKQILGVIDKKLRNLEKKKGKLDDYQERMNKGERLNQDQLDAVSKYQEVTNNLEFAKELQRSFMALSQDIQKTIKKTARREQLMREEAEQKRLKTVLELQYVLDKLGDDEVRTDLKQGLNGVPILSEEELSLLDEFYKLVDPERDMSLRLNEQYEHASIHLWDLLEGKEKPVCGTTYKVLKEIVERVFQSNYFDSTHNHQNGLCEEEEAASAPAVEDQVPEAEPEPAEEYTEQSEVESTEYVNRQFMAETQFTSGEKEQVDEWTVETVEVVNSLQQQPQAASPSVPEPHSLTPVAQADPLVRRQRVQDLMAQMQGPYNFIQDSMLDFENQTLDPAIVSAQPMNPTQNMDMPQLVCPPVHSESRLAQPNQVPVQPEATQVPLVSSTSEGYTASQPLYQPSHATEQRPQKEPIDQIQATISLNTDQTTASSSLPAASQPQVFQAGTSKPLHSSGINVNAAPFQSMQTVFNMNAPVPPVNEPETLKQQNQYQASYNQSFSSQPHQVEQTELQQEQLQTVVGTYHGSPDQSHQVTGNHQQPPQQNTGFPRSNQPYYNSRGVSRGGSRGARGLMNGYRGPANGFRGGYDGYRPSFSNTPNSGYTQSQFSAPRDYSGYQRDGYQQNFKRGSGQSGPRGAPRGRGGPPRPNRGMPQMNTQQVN

Microsomal stability [8] = assay type: in vitro ADME, human; settings: 1 μM, 45 min, LC-MS
[9] = test system: matched normal lung, colon, breast and brain cells; experiment: Cell viability, matched normal cells; assay type: cell-based, human; settings: compared to cancer cell lines
SUMO1 [10] = experiment: Western and dot blots for SUMO1 in HCT116 cells; assay type: cell-based, human; settings: gradually over about 24 hours
[11] = biological target: human ether-a-go-go–related gene (Homo sapiens, UniProt Q12809); experiment: LeadProfilingScreen selectivity profiling; assay type: binding; settings: 10 μM
SUMO1 [12] = experiment: Western blots for SUMO1 in normal lung epithelial cells; assay type: cell-based, human; settings: 72 hours; compared to lung cancer cells
[13] = test system: cytochrome P450s (2C9, 2D6, and 3A4); experiment: CYP inhibition in human liver microsomes; assay type: in vitro ADME; settings: 10 μM
histamine H2 = histamine H2 (Homo sapiens, UniProt P25021); experiment: LeadProfilingScreen selectivity profiling; assay type: binding; settings: 10 μM
[14] = Oral and intravenous PK of suspension; assay type: in vivo, rodents; settings: administered as a suspension
cancer cells = experiment: Caspase-3/7 activation and caspase-3 cleavage; assay type: cell-based, human; settings: caspase-3 cleavage
[15] = biological target: 5-hydroxytryptamine receptor 2B (5-HT2B) (Homo sapiens, UniProt P41595); experiment: LeadProfilingScreen selectivity profiling; assay type: binding; settings: 10 μM
[16] = test system: kinases, ion channels, NHRs, enzymes; experiment: LeadProfilingScreen selectivity profiling; assay type: binding, human; settings: 10 μM
Microsomal stability [17] = assay type: in vitro ADME, mouse; settings: 1 μM, 45 min, LC-MS
[18] = Intraperitoneal PK, plasma and brain; assay type: in vivo, NOD/SCID mice; settings: intraperitoneal injection 20 mg/kg, mice

Chain of adenosine A2A (P29274 whole entry): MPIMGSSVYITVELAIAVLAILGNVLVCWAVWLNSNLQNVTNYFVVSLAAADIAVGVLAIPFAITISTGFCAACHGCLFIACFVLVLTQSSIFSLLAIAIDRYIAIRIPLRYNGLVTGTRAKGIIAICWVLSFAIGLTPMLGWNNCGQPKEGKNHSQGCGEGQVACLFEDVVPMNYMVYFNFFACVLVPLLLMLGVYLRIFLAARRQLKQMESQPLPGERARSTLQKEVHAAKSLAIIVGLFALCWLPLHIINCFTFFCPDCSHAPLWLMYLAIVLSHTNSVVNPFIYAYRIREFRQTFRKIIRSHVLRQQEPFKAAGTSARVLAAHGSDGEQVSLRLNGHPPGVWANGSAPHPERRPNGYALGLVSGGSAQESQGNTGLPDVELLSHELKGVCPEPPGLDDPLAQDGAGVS
Chain of human ether-a-go-go–related gene (Q12809 whole entry): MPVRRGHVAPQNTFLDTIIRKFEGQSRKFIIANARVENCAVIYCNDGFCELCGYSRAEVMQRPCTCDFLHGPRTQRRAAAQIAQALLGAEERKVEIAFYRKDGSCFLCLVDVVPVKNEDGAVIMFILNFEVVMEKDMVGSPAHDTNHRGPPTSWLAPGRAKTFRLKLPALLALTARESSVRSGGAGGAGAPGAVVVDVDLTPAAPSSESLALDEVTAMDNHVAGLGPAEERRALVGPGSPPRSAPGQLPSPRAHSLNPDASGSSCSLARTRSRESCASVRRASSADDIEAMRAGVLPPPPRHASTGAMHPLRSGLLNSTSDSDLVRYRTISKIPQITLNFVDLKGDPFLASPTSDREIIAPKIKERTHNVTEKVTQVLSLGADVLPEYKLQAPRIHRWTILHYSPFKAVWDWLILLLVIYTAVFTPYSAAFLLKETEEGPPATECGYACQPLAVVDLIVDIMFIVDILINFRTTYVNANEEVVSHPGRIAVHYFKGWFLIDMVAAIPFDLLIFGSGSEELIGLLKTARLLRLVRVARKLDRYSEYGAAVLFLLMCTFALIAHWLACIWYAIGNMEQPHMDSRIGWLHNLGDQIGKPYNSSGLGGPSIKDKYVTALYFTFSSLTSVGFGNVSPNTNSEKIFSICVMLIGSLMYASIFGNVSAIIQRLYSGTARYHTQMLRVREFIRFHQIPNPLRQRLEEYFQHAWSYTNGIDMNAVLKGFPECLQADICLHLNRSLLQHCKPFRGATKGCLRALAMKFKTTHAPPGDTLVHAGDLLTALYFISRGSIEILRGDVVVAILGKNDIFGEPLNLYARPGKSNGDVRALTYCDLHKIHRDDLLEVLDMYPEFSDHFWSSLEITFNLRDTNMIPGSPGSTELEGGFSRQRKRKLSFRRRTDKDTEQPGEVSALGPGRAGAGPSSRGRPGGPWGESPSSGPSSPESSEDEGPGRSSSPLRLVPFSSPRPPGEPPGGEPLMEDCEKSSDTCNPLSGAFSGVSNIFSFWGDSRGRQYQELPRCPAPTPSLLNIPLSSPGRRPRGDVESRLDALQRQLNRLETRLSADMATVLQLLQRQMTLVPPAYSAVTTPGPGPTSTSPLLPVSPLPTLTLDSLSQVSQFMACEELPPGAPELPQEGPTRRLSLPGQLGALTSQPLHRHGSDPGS
Chain of 5-hydroxytryptamine receptor 2B (5-HT2B) (P41595 whole entry): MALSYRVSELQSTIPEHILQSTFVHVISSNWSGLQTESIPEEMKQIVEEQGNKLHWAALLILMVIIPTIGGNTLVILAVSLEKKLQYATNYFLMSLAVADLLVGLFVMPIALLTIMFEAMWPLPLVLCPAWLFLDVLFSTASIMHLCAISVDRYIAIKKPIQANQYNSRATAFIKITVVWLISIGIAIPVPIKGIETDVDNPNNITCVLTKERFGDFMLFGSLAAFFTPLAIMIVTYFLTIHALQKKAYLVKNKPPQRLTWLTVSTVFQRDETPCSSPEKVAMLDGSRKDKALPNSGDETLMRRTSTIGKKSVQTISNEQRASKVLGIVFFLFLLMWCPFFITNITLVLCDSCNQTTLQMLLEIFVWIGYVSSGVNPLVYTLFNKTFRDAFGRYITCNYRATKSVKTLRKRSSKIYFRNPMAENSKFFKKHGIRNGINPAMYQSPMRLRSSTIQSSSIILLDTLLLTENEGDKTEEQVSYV
Chain of histamine H2 (P25021 whole entry): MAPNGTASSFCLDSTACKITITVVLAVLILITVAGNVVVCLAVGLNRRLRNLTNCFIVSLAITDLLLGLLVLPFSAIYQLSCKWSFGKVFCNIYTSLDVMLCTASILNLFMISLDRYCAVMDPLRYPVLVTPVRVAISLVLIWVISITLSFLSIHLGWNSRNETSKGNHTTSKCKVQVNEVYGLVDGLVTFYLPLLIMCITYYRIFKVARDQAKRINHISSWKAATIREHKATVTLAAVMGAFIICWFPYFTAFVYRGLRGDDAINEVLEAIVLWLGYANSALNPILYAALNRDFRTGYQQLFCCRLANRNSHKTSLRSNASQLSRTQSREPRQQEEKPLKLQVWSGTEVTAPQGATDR

SMILES: O=C(Nc1ccc(Cl)c([N+](=O)[O-])c1)Nc1nc2ccccc2s1 [CPD1, 1-(1,3-benzothiazol-2-yl)-3-(4-chloro-3-nitrophenyl)urea]
- effect on SUMO1 and SUMO2/3 protein amounts (SUMO1 [1]): reduced the conjugated and unconjugated forms and total amounts of SUMO1 but not SUMO2/3 protein
- progression of PDXs [2]: effectively suppressed the progression
- effect on in vitro SUMO conjugation [3]: no effects
- effect on SUMO1 protein in xenograft tissues (SUMO1 [4]): markedly reduced both the total amounts and conjugate SUMO1 but not SUMO2/3 protein
- survival of brain xenograft-bearing mice [5]: increased the survival
- effect on SUMO1 mRNA expression (SUMO1 mRNA): no effects
- xenograft growth [6]: suppressed xenograft growth

SMILES: N#Cc1ccc2nc(NC(=O)Nc3cccc(Cl)c3)sc2c1 [HB007]
- inhibition of adenosine A2A (adenosine A2A): some inhibition
- oral bioavailability in plasma [7]: up to 82%
- competitive inhibition of binding of cellular CAPRIN1 to HB007-linked biotin (cellular CAPRIN1): competitively blocked
- metabolic stability in human liver microsomes (Microsomal stability [8]): sufficiently stable
- growth inhibition of matched normal cells [9]: much lower growth inhibition effects
- survival of PDX mice ([2]; BRCA1 mutant breast carcinoma and primary or metastatic colon carcinoma PDX): increased the survival
- progression of PDXs [2]: effectively suppressed the progression
- effect on SUMO1 and SUMO2/3 protein amounts (SUMO1 [10]): reduced the conjugated and total amounts of SUMO1 but not SUMO2/3 protein
- activity against human ether-a-go-go–related gene [11]: no activity
- effect on conjugated and total SUMO1 in normal lung epithelial cells (SUMO1 [12]): no effects
- inhibition of CYP enzymes [13]: did not inhibit
- inhibition of histamine H2 (histamine H2): some inhibition
- effect on SUMO1 protein in xenograft tissues (SUMO1 [4]): markedly reduced both the total amounts and conjugate SUMO1 but not SUMO2/3 protein
- plasma concentrations after oral and intravenous administration [14]: low plasma concentrations
- induction of apoptotic cell death (cancer cells): did not induce apoptotic cell death
- inhibition of 5-HT2B [15]: some inhibition
- activity against kinases, ion channels, NHRs, enzymes [16]: no activity
- metabolic stability in mouse liver microsomes (Microsomal stability [17]): sufficiently stable
- xenograft growth [6]: suppressed xenograft growth
- brain-to-plasma partition coefficient [18]: 0.57

SMILES: O=C(Nc1ccc(Cl)cc1)Nc1nc2ccccc2s1 [compound 789482, reference compound]
- competitive inhibition of binding of cellular CAPRIN1 to HB007-linked biotin (cellular CAPRIN1): failed to competitively inhibit

SMILES: O=[N+]([O-])c1cccc2nc(Nc3ccc(Cl)cc3)sc12 [compound 11208948, reference compound]
- competitive inhibition of binding of cellular CAPRIN1 to HB007-linked biotin (cellular CAPRIN1): failed to competitively inhibit
